pIC50: −log10 of the molar value.
Columns and labels:
Experiment in all cases: Enzymatic Activity Assay
[1] = biological target: T1, Histone deacetylase 7 (Homo sapiens, UniProt Q8WUI4)
T1 sequence (Q8WUI4 whole entry): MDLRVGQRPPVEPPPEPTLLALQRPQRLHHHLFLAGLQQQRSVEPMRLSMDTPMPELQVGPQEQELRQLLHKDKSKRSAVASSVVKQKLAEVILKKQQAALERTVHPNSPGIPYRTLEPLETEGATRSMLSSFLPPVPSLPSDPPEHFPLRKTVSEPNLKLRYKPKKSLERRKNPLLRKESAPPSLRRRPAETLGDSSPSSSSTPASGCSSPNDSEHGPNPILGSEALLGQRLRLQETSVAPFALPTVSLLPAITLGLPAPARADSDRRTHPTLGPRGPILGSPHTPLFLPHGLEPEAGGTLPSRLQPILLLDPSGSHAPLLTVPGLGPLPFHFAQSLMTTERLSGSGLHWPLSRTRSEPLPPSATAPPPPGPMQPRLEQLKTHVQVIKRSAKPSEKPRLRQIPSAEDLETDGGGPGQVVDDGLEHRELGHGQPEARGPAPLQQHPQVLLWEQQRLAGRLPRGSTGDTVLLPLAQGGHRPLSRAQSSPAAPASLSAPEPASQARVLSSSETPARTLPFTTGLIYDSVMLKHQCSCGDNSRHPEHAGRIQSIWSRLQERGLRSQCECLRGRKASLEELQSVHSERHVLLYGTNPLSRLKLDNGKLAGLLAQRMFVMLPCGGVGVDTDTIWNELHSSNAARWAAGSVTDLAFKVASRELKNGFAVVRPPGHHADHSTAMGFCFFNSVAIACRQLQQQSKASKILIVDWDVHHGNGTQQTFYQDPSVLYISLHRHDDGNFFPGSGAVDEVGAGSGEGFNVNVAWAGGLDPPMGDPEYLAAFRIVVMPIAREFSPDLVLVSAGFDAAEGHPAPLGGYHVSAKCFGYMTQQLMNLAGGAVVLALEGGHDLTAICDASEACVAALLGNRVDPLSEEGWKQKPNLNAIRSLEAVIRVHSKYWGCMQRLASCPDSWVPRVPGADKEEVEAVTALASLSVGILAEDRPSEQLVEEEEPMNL
Method: (§1) After a period of preincubation (incubation times and temperatures vary for different isoforms and are shown in table 1) 25 μL of solution containing the substrate were added. […] Enzymatic activity on recombinant human HDAC6 and HDAC1 was evaluated (Table 2) for each synthesized compound.

[2] = biological target: Histone deacetylase 2 (Homo sapiens, UniProt Q92769)
Histone deacetylase 2, sequence (Q92769 whole entry): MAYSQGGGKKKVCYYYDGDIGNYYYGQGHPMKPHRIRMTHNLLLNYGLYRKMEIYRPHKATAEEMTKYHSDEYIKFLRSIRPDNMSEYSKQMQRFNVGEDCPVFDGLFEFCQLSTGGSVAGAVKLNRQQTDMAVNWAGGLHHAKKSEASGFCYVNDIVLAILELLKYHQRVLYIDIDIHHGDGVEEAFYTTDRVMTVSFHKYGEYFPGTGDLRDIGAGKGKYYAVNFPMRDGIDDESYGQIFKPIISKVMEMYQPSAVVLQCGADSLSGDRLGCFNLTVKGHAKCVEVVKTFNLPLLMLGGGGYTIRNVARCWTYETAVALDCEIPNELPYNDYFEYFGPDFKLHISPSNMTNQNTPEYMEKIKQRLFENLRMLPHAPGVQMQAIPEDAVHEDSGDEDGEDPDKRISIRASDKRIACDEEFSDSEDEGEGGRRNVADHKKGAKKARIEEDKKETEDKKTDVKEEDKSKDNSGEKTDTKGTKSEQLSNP
Method: as §1

[3] = biological target: Histone deacetylase 5 (Homo sapiens, UniProt Q9UQL6)
Histone deacetylase 5, sequence (Q9UQL6 whole entry): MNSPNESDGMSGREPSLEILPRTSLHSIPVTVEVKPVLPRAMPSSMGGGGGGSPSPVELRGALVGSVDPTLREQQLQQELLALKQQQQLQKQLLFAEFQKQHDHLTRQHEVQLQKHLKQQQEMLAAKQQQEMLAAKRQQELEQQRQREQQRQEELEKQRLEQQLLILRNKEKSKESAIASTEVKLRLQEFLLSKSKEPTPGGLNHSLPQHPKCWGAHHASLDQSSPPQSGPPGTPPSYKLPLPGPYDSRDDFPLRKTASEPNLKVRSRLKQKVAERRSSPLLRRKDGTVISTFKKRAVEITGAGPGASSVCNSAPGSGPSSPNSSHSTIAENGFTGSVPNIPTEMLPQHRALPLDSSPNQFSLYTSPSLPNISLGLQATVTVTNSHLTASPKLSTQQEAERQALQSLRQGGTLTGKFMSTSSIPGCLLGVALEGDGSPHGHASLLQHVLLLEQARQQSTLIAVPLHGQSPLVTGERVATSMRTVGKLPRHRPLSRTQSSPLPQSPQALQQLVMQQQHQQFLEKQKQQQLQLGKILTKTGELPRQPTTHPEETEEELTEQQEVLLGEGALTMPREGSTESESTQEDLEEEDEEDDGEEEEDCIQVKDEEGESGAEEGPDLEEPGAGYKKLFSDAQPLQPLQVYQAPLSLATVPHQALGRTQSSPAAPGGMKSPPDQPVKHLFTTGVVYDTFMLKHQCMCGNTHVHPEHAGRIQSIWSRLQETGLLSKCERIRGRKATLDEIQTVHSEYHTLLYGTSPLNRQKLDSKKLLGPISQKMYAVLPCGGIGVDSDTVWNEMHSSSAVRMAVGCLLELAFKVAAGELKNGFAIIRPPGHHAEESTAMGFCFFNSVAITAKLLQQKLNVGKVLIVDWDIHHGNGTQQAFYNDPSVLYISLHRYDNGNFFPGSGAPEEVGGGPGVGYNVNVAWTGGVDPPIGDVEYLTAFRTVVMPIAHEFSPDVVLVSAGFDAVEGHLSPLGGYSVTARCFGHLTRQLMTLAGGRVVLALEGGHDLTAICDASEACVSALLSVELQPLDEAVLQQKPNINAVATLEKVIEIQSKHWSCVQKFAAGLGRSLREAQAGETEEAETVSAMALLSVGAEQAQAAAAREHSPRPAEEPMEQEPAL
Method: as §1

Measured: pIC50

Nc1nc2ccc(-c3cn(Cc4ccc(-c5nnc(C(F)F)o5)cc4)nn3)cc2s1 [US20230286970, Compound 14]
< 4.52: all assays above

Nc1ccc(-c2cn(Cc3ccc(-c4nnc(C(F)F)o4)c(F)c3)nn2)cn1 [US20230286970, Compound 15]
< 4.52: all assays above
